# Test results reported in US9238039B2, “Pyrazolo[1,5-A]pyrimidines for antiviral treatment” (Gilead Sciences, Inc., priority 2010, dated 2016).
# Test system: RSV strain A2
# Assay: RSV antiviral cytoprotection assay in Hep2 cells (96-well and 384-well format, Cell TiterGlo read-out)
# Assay type: cell-based, Respiratory Syncytial Virus (RSV)
# Settings: human respiratory syncytial virus, HEp-2, 0.5 uM; RSV-induced cytopathic effect in Hep2 cells; calculated from fitted dose response curve, normalized to 0% and 100%
row,SMILES,inhibition at 0.5 µM
1,Cc1ccc(NS(C)(=O)=O)c(C(=O)N2CCCC[C@H]2c2cc3nc(C)c(C)c(C4CC4)n3n2)c1 [Compound 87],84%
2,CC(=O)Nc1c(C)c(C)nc2cc([C@@H]3CCCCN3C(=O)c3cc(C)ccc3NS(C)(=O)=O)nn12 [Compound 88],98%
3,Cc1ccc(NS(C)(=O)=O)c(C(=O)N2CCC(C)CC2c2cc3[nH]c(C)c(C)c(=O)n3n2)c1 (centres unmarked) [Compound 89],100%
4,Cc1cn2nc([C@@H]3CCCCN3C(=O)c3cc(Cl)ccc3NS(C)(=O)=O)cc2nc1N1CC(C)(O)C1 [Compound 96],97%
5,Cc1ccc(NS(C)(=O)=O)c(C(=O)N2CCCC[C@H]2c2cc3nc(C)c(C)c(N4CCCC4)n3n2)c1 [Compound 98],98%
6,Cc1nc2cc([C@@H]3CCCCN3C(=O)c3cc(Cl)ccc3NS(C)(=O)=O)nn2c(N(C)C)c1C [Compound 99],99%
7,Cc1nc2cc([C@@H]3CCCCN3C(=O)c3ccccc3NS(C)(=O)=O)nn2c(N(C)C)c1C [Compound 100],96%
8,Cc1ccc(NS(C)(=O)=O)c(C(=O)N2CCCC[C@H]2c2cc3nc(C)c(C)c(N(C)C)n3n2)c1 [Compound 101],100%
9,Cc1ccc(NS(C)(=O)=O)c(C(=O)N2CCCC[C@H]2c2cc3nc(C)c(C)c(NC4CC4)n3n2)c1 [Compound 102],98%
10,Cc1ccc(NS(C)(=O)=O)c(C(=O)N2CCCC[C@H]2c2cc3nc(C)c(C)c(C#N)n3n2)c1 [Compound 103],98%
11,Cc1ccc(NS(C)(=O)=O)c(C(=O)N2CCCC[C@H]2c2cc3nc(C)c(C)c(N4CCOCC4)n3n2)c1 [Compound 104],100%
12,CC1(O)CN(c2cc(N3CCC3)nc3cc([C@@H]4CCCCN4C(=O)c4cc(Cl)ccc4NS(C)(=O)=O)nn23)C1 [Compound 105],100%
13,CS(=O)(=O)Nc1ccc(Cl)cc1C(=O)N1CCCC[C@H]1c1cc2nc(N3CCC3)cc(N3CCSC3)n2n1 [Compound 106],100%
14,C[C@@H]1CN(c2cc(N3CCC3)nc3cc([C@@H]4CCCCN4C(=O)c4cc(Cl)ccc4NS(C)(=O)=O)nn23)C[C@H](C)O1 [Compound 107],100%
15,C[C@@H]1CN(c2cc(N3CC(O)C3)nc3cc([C@@H]4CCCCN4C(=O)c4cc(Cl)ccc4NS(C)(=O)=O)nn23)C[C@H](C)O1 [Compound 108],100%
16,CC#Cc1cc(N2CCOCC2)n2nc([C@@H]3CCCCN3C(=O)c3cc(Cl)ccc3NS(C)(=O)=O)cc2n1 [Compound 110],100%
17,Cc1cc(NS(C)(=O)=O)c(C(=O)N2CCCC[C@H]2c2cc3nc(C4CC4)cc(C)n3n2)s1 [Compound 111],95%
18,Cc1ccc(N2CCCC2=O)c(C(=O)N2CCCC[C@H]2c2cc3nc(C4CC4)cc(C)n3n2)c1 [Compound 112],97%
19,Cc1ccc(N2CCCS2(=O)=O)c(C(=O)N2CCCC[C@H]2c2cc3nc(C4CC4)cc(C)n3n2)c1 [Compound 113],100%
20,Cc1cc(C2CC2)nc2cc([C@@H]3CCCCN3C(=O)c3cc(N)ccc3NS(C)(=O)=O)nn12 [Compound 114],100%
21,CCc1ccc(NS(C)(=O)=O)c(C(=O)N2CCCC[C@H]2c2cc3nc(C4CC4)cc(C)n3n2)c1 [Compound 115],100%
22,CCc1ccc(NS(C)(=O)=O)c(C(=O)N2CCCC[C@H]2c2cc3[nH]c(C)c(C)c(=O)n3n2)c1 [Compound 116],98%
23,Cc1cc(C2CC2)nc2cc([C@@H]3CCCCN3C(=O)c3cc(F)c(F)cc3NS(C)(=O)=O)nn12 [Compound 117],99%
24,COC(=O)NC(C(=O)N1CCCC[C@H]1c1cc2nc(C3CC3)cc(C)n2n1)c1ccccc1 (some centres unmarked) [Compound 118],99%
25,Cc1cc(Cl)cc(C(=O)N2CCCC[C@H]2c2cc3[nH]c(C)c(C)c(=O)n3n2)c1NS(C)(=O)=O [Compound 120],100%
26,Cc1cc(C2CC2)nc2cc([C@@H]3CCCCN3C(=O)c3cc(F)cc(Br)c3NS(C)(=O)=O)nn12 [Compound 121],97%
27,Cc1cc(C2CC2)nc2cc([C@@H]3CCCCN3C(=O)c3cc(Br)ccc3NS(C)(=O)=O)nn12 [Compound 122],99%
28,Cc1[nH]c2cc([C@@H]3CCCCN3C(=O)c3cc(F)cc(Cl)c3NS(C)(=O)=O)nn2c(=O)c1C [Compound 127],99%

# Same assay, conditions: human respiratory syncytial virus, HEp-2, RSV-induced cytopathic effects, Hep2 cells; class symbols
row,SMILES,EC50
1,Cc1ccc(NS(C)(=O)=O)c(C(=O)N2CCCC[C@H]2c2cc3nc(C)c(C)c(C4CC4)n3n2)c1 [Compound 87],101 to 1000 nM
2,CC(=O)Nc1c(C)c(C)nc2cc([C@@H]3CCCCN3C(=O)c3cc(C)ccc3NS(C)(=O)=O)nn12 [Compound 88],0.1 to 100 nM
3,Cc1ccc(NS(C)(=O)=O)c(C(=O)N2CCC(C)CC2c2cc3[nH]c(C)c(C)c(=O)n3n2)c1 (centres unmarked) [Compound 89],0.1 to 100 nM
4,Cc1cn2nc([C@@H]3CCCCN3C(=O)c3cc(Cl)ccc3NS(C)(=O)=O)cc2nc1N1CC(C)(O)C1 [Compound 96],0.1 to 100 nM
5,Cc1ccc(NS(C)(=O)=O)c(C(=O)N2CCCC[C@H]2c2cc3nc(C)c(C)c(N4CCCC4)n3n2)c1 [Compound 98],0.1 to 100 nM
6,Cc1nc2cc([C@@H]3CCCCN3C(=O)c3cc(Cl)ccc3NS(C)(=O)=O)nn2c(N(C)C)c1C [Compound 99],0.1 to 100 nM
7,Cc1nc2cc([C@@H]3CCCCN3C(=O)c3ccccc3NS(C)(=O)=O)nn2c(N(C)C)c1C [Compound 100],0.1 to 100 nM
8,Cc1ccc(NS(C)(=O)=O)c(C(=O)N2CCCC[C@H]2c2cc3nc(C)c(C)c(N(C)C)n3n2)c1 [Compound 101],0.1 to 100 nM
9,Cc1ccc(NS(C)(=O)=O)c(C(=O)N2CCCC[C@H]2c2cc3nc(C)c(C)c(NC4CC4)n3n2)c1 [Compound 102],0.1 to 100 nM
10,Cc1ccc(NS(C)(=O)=O)c(C(=O)N2CCCC[C@H]2c2cc3nc(C)c(C)c(C#N)n3n2)c1 [Compound 103],0.1 to 100 nM
11,Cc1ccc(NS(C)(=O)=O)c(C(=O)N2CCCC[C@H]2c2cc3nc(C)c(C)c(N4CCOCC4)n3n2)c1 [Compound 104],0.1 to 100 nM
12,CC1(O)CN(c2cc(N3CCC3)nc3cc([C@@H]4CCCCN4C(=O)c4cc(Cl)ccc4NS(C)(=O)=O)nn23)C1 [Compound 105],0.1 to 100 nM
13,CS(=O)(=O)Nc1ccc(Cl)cc1C(=O)N1CCCC[C@H]1c1cc2nc(N3CCC3)cc(N3CCSC3)n2n1 [Compound 106],0.1 to 100 nM
14,C[C@@H]1CN(c2cc(N3CCC3)nc3cc([C@@H]4CCCCN4C(=O)c4cc(Cl)ccc4NS(C)(=O)=O)nn23)C[C@H](C)O1 [Compound 107],0.1 to 100 nM
15,C[C@@H]1CN(c2cc(N3CC(O)C3)nc3cc([C@@H]4CCCCN4C(=O)c4cc(Cl)ccc4NS(C)(=O)=O)nn23)C[C@H](C)O1 [Compound 108],0.1 to 100 nM
16,CC#Cc1cc(N2CCOCC2)n2nc([C@@H]3CCCCN3C(=O)c3cc(Cl)ccc3NS(C)(=O)=O)cc2n1 [Compound 110],0.1 to 100 nM
17,Cc1cc(NS(C)(=O)=O)c(C(=O)N2CCCC[C@H]2c2cc3nc(C4CC4)cc(C)n3n2)s1 [Compound 111],0.1 to 100 nM
18,Cc1ccc(N2CCCC2=O)c(C(=O)N2CCCC[C@H]2c2cc3nc(C4CC4)cc(C)n3n2)c1 [Compound 112],0.1 to 100 nM
19,Cc1ccc(N2CCCS2(=O)=O)c(C(=O)N2CCCC[C@H]2c2cc3nc(C4CC4)cc(C)n3n2)c1 [Compound 113],0.1 to 100 nM
20,Cc1cc(C2CC2)nc2cc([C@@H]3CCCCN3C(=O)c3cc(N)ccc3NS(C)(=O)=O)nn12 [Compound 114],0.1 to 100 nM
21,CCc1ccc(NS(C)(=O)=O)c(C(=O)N2CCCC[C@H]2c2cc3nc(C4CC4)cc(C)n3n2)c1 [Compound 115],0.1 to 100 nM
22,CCc1ccc(NS(C)(=O)=O)c(C(=O)N2CCCC[C@H]2c2cc3[nH]c(C)c(C)c(=O)n3n2)c1 [Compound 116],0.1 to 100 nM
23,Cc1cc(C2CC2)nc2cc([C@@H]3CCCCN3C(=O)c3cc(F)c(F)cc3NS(C)(=O)=O)nn12 [Compound 117],0.1 to 100 nM
24,COC(=O)NC(C(=O)N1CCCC[C@H]1c1cc2nc(C3CC3)cc(C)n2n1)c1ccccc1 (some centres unmarked) [Compound 118],0.1 to 100 nM
25,Cc1cc(Cl)cc(C(=O)N2CCCC[C@H]2c2cc3[nH]c(C)c(C)c(=O)n3n2)c1NS(C)(=O)=O [Compound 120],0.1 to 100 nM
26,Cc1cc(C2CC2)nc2cc([C@@H]3CCCCN3C(=O)c3cc(F)cc(Br)c3NS(C)(=O)=O)nn12 [Compound 121],0.1 to 100 nM
27,Cc1cc(C2CC2)nc2cc([C@@H]3CCCCN3C(=O)c3cc(Br)ccc3NS(C)(=O)=O)nn12 [Compound 122],0.1 to 100 nM
28,Cc1[nH]c2cc([C@@H]3CCCCN3C(=O)c3cc(F)cc(Cl)c3NS(C)(=O)=O)nn2c(=O)c1C [Compound 127],0.1 to 100 nM
